In patent US20180028552A1, “COMBINATION THERAPY FOR TREATING CANCER” (Epizyme, Inc., priority 2015, published 2018):
Entries after “also recorded” stand apart in the source; their conditions may differ.

Tests used:
ML-2 (MLL-AF6) cells [1] = assay: Cell death / cell kill in ML-2 cells; format: cell-based; settings: for cell death: 0.5 μM EPZ-5676, day not given
MV4-11 tumors = assay: MV4-11 subcutaneous xenograft efficacy study in nude rats; format: in vivo, rat; settings: single agent at the MTD (Azacitidine 2 mg/kg, Cytarabine 200 mg/kg), intraperitoneal once daily for 14 days
Method: (§2) To follow up on these findings and to determine if combinations were tolerable and efficacious in vivo, nude rats implanted subcutaneously with MV4-11 tumors were dosed using a range of doses and schedules. […] In preparation for an efficacy combination study, the Azacitidine and Cytarabine single agent activity in a MV4-11 model was determined.
(§3) 35 mg/kg/day EPZ-5676 was administered by continous IV (CIV) infusion while Azacitdine and Cytarabine was dosed daily by intraperitoneal injection at 2 and 200 mg/kg respectively. […] The tumor volumes are represented as the median tumor volumes mm^3 of the group.

in vivo = settings: nude, rat, ip
Method: as §2, §3

ML-2 (MLL-AF6) cells [2] = assay: Cellular differentiation assay in ML-2 cells; format: cell-based; settings: for cellular differentiation (CD14+ differentiated cell population): 0.5 μM EPZ-5676, day not given
MV4-11 (MLL-AF4) cells [3] = assay: Cell death / cell kill in MV4-11 cells (Annexin V/7-AAD flow cytometry, CTG, cell count, Incucyte caspase 3/7); format: cell-based; settings: for cell death in a dose response experiment: single agent dose response
Excerpt: FIG. 2A depicts three experimental conditions: 1) MV4-11 cells were contacted with AZA for three consecutive days, followed by treatment with EPZ-5676 on the second, fourth, sixth, and ninth day; 2) the MV4-11 cells were contacted with vehicle for three consecutive days, followed by treatment with EPZ-5676 on the second, fourth, sixth, and ninth day; and 3) the MV4-11 cells were contacted with vehicle for three consecutive days, followed by contact with vehicle on the second, fourth, sixth, and ninth day.
FIGS. 5A-5F are a series of graphs that depict real-time imaging to study the effect of AZA priming on MV4-11 cells utilizing Incucyte Zoom® for suspension cell imaging. […] The Kinetic Caspase 3/7 reagent was used to assess cell death (FIG. 5B). For these assays, 6,000 cells were plated per well of a 96-well plate and dosed with EPZ-5676 using a ten point concentration gradient starting from 10 μM. 1× caspase dye was then added to each well. FIG. 5C is a series of graphs that depict real-time monitoring of cell death using Caspase 3/7 kinetic dye. […] FIG. 5E is a series of graphs that depict real-time monitoring of AUC Growth by Red object (labeled cell) count. FIG. 5F is a series of graphs that depicts cellular AUC growth following vehicle or AZA priming followed by treatment with EPZ-5676, and control conditions including vehicle alone, DMSO.
In this study of Example 1, the flexibility of treatment schedules when EPZ-5676 was combined with Azacitidine in MLL-r cells was evaluated.
Compounds were evaluated for cell killing effects as single agents and in combination according to the methods described in the experimental setup.

RS4;11 (MLL-AF4) cells [4] = assay: Cellular differentiation assay in RS4;11 cells; format: cell-based; settings: for cellular differentiation: 0.5 μM EPZ-5676, day not given
RS4;11 (MLL-AF4) cells [5] = assay: Cell death / cell kill in RS4;11 cells; format: cell-based; settings: for cell death / cell kill: 0.5 μM EPZ-5676, day not given
NOMO-1 (MLL-AF9) cells [6] = assay: Cell death / cell kill in NOMO-1 cells (Annexin V/7-AAD); format: cell-based; settings: for resistance of cell line to the agent: sensitive is defined as IC50 ≤ 3 μM
Method: (§1) FIGS. 4A-4H are a series of schematics and graphs that depict the effect on cellular differentiation of AZA priming in AML cell lines. […] FIG. 4C depicts AZA dose response curves for an AML cell line panel. […] For the flow cytometry assays, Annexin V/7-AAD staining was used to assess cell death, and CD11b/CD14 antibodies were used to evaluate cellular differentiation. […] Flow cytometry assays were also performed to assess cellular differentiation and cell death following AZA priming followed by treatment of the cells with 0.5 μM EPZ-5676.

[7] = test system: MLL rearranged leukemia xenograft; settings: in vivo; cited from earlier work
[8] = test system: histone H3K79 methylation; settings: cited from earlier work
NOMO-1 (MLL-AF9) cells [9] = assay: Cellular differentiation assay (CD11b/CD14) in NOMO-1 cells; format: cell-based; settings: 0.5 μM EPZ-5676; day not given
Method: as §1

H3K79me2 = H3K79me2 ChIP-qPCR in MV4-11 cells; format: cell-based; settings: 0.5 μM EPZ-5676; 0.5 μM QD×3 AZA
Method: FIGS. 3A-3D are a series of graphs that contain data obtained from H3K79me2 ChIP-qPCR assays of MV4-11 (MLL-AF4) cells at various time points following exposure to either vehicle alone, vehicle and 0.5 μM EPZ-5676, or 0.5 μM QD×3 AZA and 0.5 μM EPZ-5676.

[10] = test system: REH (non-rearranged control); assay: Cell kill combination study in REH cells; format: cell-based; settings: sensitive is defined as IC50 ≤ 3 μM
MEIS1 = MEIS1 mRNA expression in MV4-11 cell line; format: cell-based; settings: with increased concentrations (dose dependent)
Method: FIGS. 1A-1D are a series of graphs that depict mRNA expression levels of MEIS1 (FIGS. 1A and 1C) and HOXA2 (FIGS. 1B and 1D) in the MV4-11 cell line following treatment with AZA (also referred to herein as Azacitidine) and EPZ-5676. The data depicted in FIGS. 1A and 1B are from assays in which various concentrations of EPZ-5676 or DMSO alone, in combination with 1 μM AZA QD×3, 0.3 μM AZA QD×3, or vehicle alone were contacted with the cultured MV4-11 cells. (QD=daily dosage; QD×3=three day treatment). […]

HOXA9 = HOXA9 expression; format: cell-based; settings: dose dependent
Excerpt: For example, a gene expression assay that can be used includes the steps of (1) culturing cells (e.g., EOL-1, KOPM-88, Molm13, MV411, LOUCY, SemK2, Reh, HL60, BV173, or Jurkat cells) in the presence or absence of a compound (e.g., Compound A2 and/or a DNMT inhibitor); (2) harvesting the cells; (3) extracting the RNA using methods known in the art (e.g., Qiagen RNeasy Kit); (4) synthesizing cDNA from the extracted RNA (e.g., Applied Biosystems reverse transcriptase kit); (5) preparing qPCR reactions using, for example, primers and probes (e.g., predesigned labeled primer and probe sets for HOXA9, FLT3, MEIS1, MEIS2, TBP, BCL, DOT1L, and β2-microglobulin from Applied Biosystems), synthesized sample cDNA, and qPCR master mix reagent (e.g., Applied Biosystems Taqman universal PCR master mix); (6) running samples on PCR machine (e.g., Applied Biosystems); (7) analysis of the data and calculation of relative gene expression.

MV4-11 (MLL-AF4) cells [11] = assay: Cellular differentiation assay (CD11b/CD14 flow cytometry) in MV4-11 cells; format: cell-based
Method: FIGS. 4A-4H are a series of schematics and graphs that depict the effect on cellular differentiation of AZA priming in AML cell lines. FIGS. 4A and 4B are a series of schematics that depict the experimental setup of the assays performed to determine differentiation and cell death. FIG. 4C depicts AZA dose response curves for an AML cell line panel. FIGS. 4D-4G are a series of flow cytometry assays that were performed to assess cellular differentiation and cell death in the NOMO-1 acute myeloid leukemia cell line. For the flow cytometry assays, Annexin V/7-AAD staining was used to assess cell death, and CD11b/CD14 antibodies were used to evaluate cellular differentiation. […] Flow cytometry assays were also performed to assess cellular differentiation and cell death following AZA priming followed by treatment of the cells with 0.5 μM EPZ-5676.
FIGS. 6A-6D are a series of flow cytometry graphs that depict cellular differentiation and cell death following treatment of MV4-11 (MLL-AF4) cells with vehicle or AZA priming followed by 0.5 μM EPZ-5676, or vehicle only conditions.

[12] = sensitive is defined as IC50 ≤ 3 μM
[13] = 0.5 μM EPZ-5676 with or without AZA priming, day not given

## Nc1ncn([C@@H]2O[C@H](CO)[C@@H](O)[C@H]2O)c(=O)n1 [Azacitidine, reference compound]
ML-2 (MLL-AF6) cells [1]
  cell death: effect on cell death
MV4-11 tumors
  inhibition of subcutaneous MV4-11 tumor compared to vehicle control: 50%
In vivo
  MTD at 14 days: 2 mg/kg
ML-2 (MLL-AF6) cells [2]
  cellular differentiation (CD14+ differentiated cell population): no effect
MV4-11 (MLL-AF4) cells [3]
  cell death in a dose response experiment: AZA induces cell death in MV4-11 cells
RS4;11 (MLL-AF4) cells [4]
  cellular differentiation: no effect
RS4;11 (MLL-AF4) cells [5]
  cell death / cell kill: effect on cell death
NOMO-1 (MLL-AF9) cells [6]
  resistance of cell line to the agent: resistant

## CC(C)N(C[C@H]1O[C@@H](n2cnc3c(N)ncnc32)[C@H](O)[C@@H]1O)[C@H]1C[C@@H](CCc2nc3cc(C(C)(C)C)ccc3[nH]2)C1 [EPZ-5676, pinometostat]
ML-2 (MLL-AF6) cells [1]
  cell death: no cell death
ML-2 (MLL-AF6) cells [1]; Day 6
  cell kill: No cell kill with EPZ-
ML-2 (MLL-AF6) cells [1]; Day 10
  cell kill: No cell kill with EPZ-
ML-2 (MLL-AF6) cells [1]; [12]
  resistance of cell line to the agent: resistant
[7]
  tumor response: complete tumor regressions
[8]
  inhibition of intracellular histone H3K79 methylation: selectively inhibits
NOMO-1 (MLL-AF9) cells [9]
  amount of CD14+ cells: increase
H3K79me2
  H3K79me2 signal / mark (ChIP-qPCR, MEIS1 and HOXA9 genes): reduced; also recorded: single agent both decrease H3K79me2
[10]
  resistance of cell line to the agent: resistant
ML-2 (MLL-AF6) cells [2]
  cellular differentiation (CD14+ differentiated cell population): no cell differentiation; also recorded: population as compared to no
ML-2 (MLL-AF6) cells [2]; Day 6
  differentiation: No differentiation
ML-2 (MLL-AF6) cells [2]; Day 10
  differentiation: No differentiation
MEIS1
  MEIS1 mRNA levels / expression: reduces
HOXA9
  HOXA9 expression: reduces
MV4-11 (MLL-AF4) cells [3]; [13]
  cell death: no appreciable cell death
MV4-11 (MLL-AF4) cells [3]; Homo sapiens, MV4-11, read-out: sensitivity of MV4-11 to EPZ-5676
  IC50: ≤ 3000 nM
MV4-11 (MLL-AF4) cells [3]
  cell death in a dose response experiment: EPZ-5676 does not induce cell death in
RS4;11 (MLL-AF4) cells [4]
  cellular differentiation: no cell differentiation
RS4;11 (MLL-AF4) cells [4]; Day 6
  differentiation: No differentiation
RS4;11 (MLL-AF4) cells [4]; Day 10
  differentiation: No differentiation
RS4;11 (MLL-AF4) cells [5]
  cell death / cell kill: no cell death
RS4;11 (MLL-AF4) cells [5]; Day 6
  cell kill: No cell kill with EPZ-
RS4;11 (MLL-AF4) cells [5]; Day 10
  cell kill: No cell kill with EPZ-
RS4;11 (MLL-AF4) cells [5]; [12]
  resistance of cell line to the agent: resistant
NOMO-1 (MLL-AF9) cells [6]; 0.5 μM EPZ-5676, day not given
  cell death: no appreciable cell death
NOMO-1 (MLL-AF9) cells [6]; Day 6
  cell kill: No cell kill with EPZ-
NOMO-1 (MLL-AF9) cells [6]; Day 10
  cell kill: No cell kill with EPZ-
NOMO-1 (MLL-AF9) cells [6]
  resistance of cell line to the agent: resistant
MV4-11 (MLL-AF4) cells [11]; [13]
  cellular differentiation (CD14 positive population): no increase
MV4-11 (MLL-AF4) cells [11]; Day 6
  CD11b+ cell population: Depletion of CD11b+ cell
  CD14+ cell population: No increase in CD14+
MV4-11 (MLL-AF4) cells [11]; Day 10
  CD11b+ cell population: Depletion of CD11b+
  CD14+ cell population: No increase in CD14+—

## Nc1ccn([C@@H]2O[C@H](CO)[C@@H](O)[C@@H]2O)c(=O)n1 [Cytarabine]
MV4-11 tumors
  inhibition of subcutaneous MV4-11 tumor compared to vehicle control: 50%
In vivo
  MTD at 14 days: 200 mg/kg
